These results are taken from patent US9944613B2, “Fumagillol spirocyclic compounds and fused bicyclic compounds and methods of making and using same” (Zafgen, Inc., priority 2015, dated 2018).

One test deals with T1, recombinant human MetAP2 (Homo sapiens, UniProt P50579).
T1 construct: Flag; made in house
Briefly: Inhibition of recombinant human MetAP2 activity (MAS peptide / amino acid oxidase / Amplex assay). It is filed as biochemical. The conditions noted are these: Flag tagged human recombinant MetAP2, 25 minutes at 25° C.; read-out: MetAP2 IC50. As to the method: Compounds are tested for their capacity to inhibit recombinant human MetAP2 activity using the following assay.
Flag tagged Human recombinant MetAP2 expressed and isolated for use as the enzyme source. 10 mM stock solutions of compounds were prepared in 100% DMSO and further diluted in 100% DMSO required concentration to 1 mM stocks. The stock compound solutions and DMSO vehicle controls were diluted to target final compound concentrations using assay buffer to a final concentration of 50 mM HEPES containing 100 mM NaCl, pH adjusted to 7.5. The MAS peptide was formulated to a 7.5 mM stock in distilled water and prior to use further diluted 1:4. […] 40 μl of enzyme was mixed with 100 μl of MnCl2 then further diluted in assay buffer to a final concentration of 16 μg/ml. To test for compound effect on MetAP2 enzyme activity, 5 μl of test compound, 10 μl of MAS substrate/amino acid oxidase mixture, 10 μl of MetAP2 was added to test wells in a 384 well black plate with blank wells containing no enzyme, replaced with 10 μl of assay buffer. All compounds were tested in duplicate on two occasions on the same day.
The plate was sealed with a TopSeal A cover and mixed briefly on an orbital mixer at 900 rpm. The plate was incubated for a further 25 minutes at 25° C. A 5× stock of Amplex buffer was prepared (0.25M sodium phosphate, pH 7.4) and stored at 4° C. When preparing for use the stock was diluted with distilled water. […] Horse radish peroxidase was diluted in […] of Amplex buffer, 100 μl of this was combined with 50 μl of Amplex Ultrared in […] of 1× Amplex buffer to generate sufficient detection reagent for a 384 well plate. 25 μl detection reagent was added to each well of the test plate, which was re-sealed and mixed briefly on an orbital shaker. The plate was transferred to an Envision Multi-label reader and RFU measured corresponding to excitation 531 nm and emission 595 nm. At the end of the MetAP2 incubation 25 μl Amplex/HRP mixture per well was added and the plate read plate on a plate reader.

For test [1], the system named is Diet Induced Obese (DIO) C57BL/6 mice. Put plainly: 10 day DIO mouse model, weight loss vs. vehicle. Type of test: in vivo. The conditions noted are these: 240 h, 0.3 mpk sc once a day for 10 days. The source says: The objective of this study design was to investigate the efficacy of disclosed compounds in a 10 day DIO mouse model. Effects on body weight, food intake, hematology and blood chemistry were the primary readouts of this study design. Male, Diet Induced Obese (DIO) C57BL/6 mice, 19-21 weeks of age (13-15 weeks on high fat diet) were ordered from a certified vendor and upon receipt were housed on irradiated corncob bedding in micro-isolator cages on a 12-hour light-dark cycle (0700-1900) at 68-74° F. and 30-70% humidity. Mice were fed Research Diets D12492 (60% Kcal fat, 20% Kcal carbohydrate and 20% protein) and provided water ad libitum. DIO mice were received and housed in the facility for approximately two weeks prior to the start of test article administration. On Day −4 or −3, mice were randomized into study groups based on body weight and body weights were continued to be recorded daily for the duration of the study. Daily food intake was assessed starting on Study Day −2 by weighing of the food with hopper together to avoid loss of food in transfer.
Compounds were formulated into a 100% DMSO stock (at 9 mg/mL) prior to the start, and further diluted into the target working concentration using the vehicle of 10% DMSO in water. Prior to test article administration, starting on Day −3 a dosing acclimation occured with all animals receiving a subcutaneous injection of vehicle (10% DMSO) only for 3 days. Starting on Day 1, test compounds or vehicle were administered based on individual body weight, subcutaneously, once a day for 10 days. All mice were sacrificed on Day 11, 24 hours following the final dosing on Day 10. After sacrifice, whole blood was collected and analyzed for hematology and blood chemistry parameters.
Compounds were tested for weight loss vs. vehicle at 0.3 and 1.0 mpk sc (mg per kg animal weight delivered subcutaneously), and the results are shown in Table 2 below.

Where a name gives a salt, the structure may show the parent alone. Bounds are passed on as bounds.

T1 sequence (P50579 whole entry): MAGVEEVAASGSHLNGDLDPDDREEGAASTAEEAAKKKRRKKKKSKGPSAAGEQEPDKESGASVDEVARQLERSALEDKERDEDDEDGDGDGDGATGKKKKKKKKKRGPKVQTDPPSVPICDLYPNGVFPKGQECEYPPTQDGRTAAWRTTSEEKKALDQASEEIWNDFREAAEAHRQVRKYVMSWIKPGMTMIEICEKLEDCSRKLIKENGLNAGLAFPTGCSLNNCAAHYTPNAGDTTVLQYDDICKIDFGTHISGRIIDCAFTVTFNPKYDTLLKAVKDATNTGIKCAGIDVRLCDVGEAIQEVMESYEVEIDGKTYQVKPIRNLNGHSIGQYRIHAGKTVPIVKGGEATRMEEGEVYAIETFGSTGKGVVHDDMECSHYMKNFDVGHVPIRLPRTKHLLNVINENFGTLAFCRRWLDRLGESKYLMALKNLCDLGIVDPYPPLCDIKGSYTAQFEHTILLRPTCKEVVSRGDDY

With `CO[C@@H]1[C@H](OC(=O)N2C[C@@H]3[C@H](C2)[C@H]3C(N)=O)CC[C@]2(CO2)[C@H]1[C@@]1(C)O[C@@H]1CC=C(C)C` [Example 34, (1R,5S,6R)-(3R,4S,5S,6R)-5-methoxy-4-((2R,3R)-2-methyl-3-(3-methylbut-2-en-1-yl)oxiran-2-yl)-1-oxaspiro[2.5]octan-6-yl 6-carbamoyl-3-azabicyclo[3.1.0]hexane-3-carboxylate], the IC50 at recombinant human MetAP2 is under 50 nM. Besides, the inhibition in vivo at 0.3 mg/kg in test [1] was determined as 3%.

For `CO[C@@H]1[C@H](OC(=O)N2C[C@@H]3[C@H](C2)[C@H]3C(=O)N(C)C)CC[C@]2(CO2)[C@H]1[C@@]1(C)O[C@@H]1CC=C(C)C` [Example 33, (1R,5S,6R)-(3R,4S,5S,6R)-5-methoxy-4-((2R,3R)-2-methyl-3-(3-methylbut-2-en-1-yl)oxiran-2-yl)-1-oxaspiro[2.5]octan-6-yl 6-(dimethylcarbamoyl)-3-azabicyclo[3.1.0]hexane-3-carboxylate], the IC50 at recombinant human MetAP2 lay in the range of 50 to 500 nM. For the same molecule, in test [1], the inhibition in vivo at 0.3 mg/kg is 13.8%. For `CO[C@@H]1[C@H](OC(=O)N2CCC3(CCN(C)CC3)C2)CC[C@]2(CO2)[C@H]1[C@@]1(C)O[C@@H]1CC=C(C)C` [Example 26, (3R,4S,5S,6R)-5-methoxy-4-((2R,3R)-2-methyl-3-(3-methylbut-2-enyl)oxiran-2-yl)-1-oxaspiro[2.5]octan-6-yl 8-methyl-2,8-diazaspiro[4.5]decane-2-carboxylate], in that order: under 50 nM and 5.6%. For `CO[C@@H]1[C@H](OC(=O)N2CC3(CN(C)C3)C2)CC[C@]2(CO2)[C@H]1[C@@]1(C)O[C@@H]1CC=C(C)C` [Example 12, (3R,4S,5S,6R)-5-methoxy-4-((2R,3R)-2-methyl-3-(3-methylbut-2-enyl)oxiran-2-yl)-1-oxaspiro[2.5]octan-6-yl 6-methyl-2,6-diazaspiro[3.3]heptane-2-carboxylate], in that order: under 50 nM and 1.8%.

Turning to `CO[C@@H]1[C@H](OC(=O)N2C[C@@H]3[C@H](C2)[C@H]3C(=O)NCCN2CCOCC2)CC[C@]2(CO2)[C@H]1[C@@]1(C)O[C@@H]1CC=C(C)C` [Example 37, (1R,5S,6R)-(3R,4S,5S,6R)-5-methoxy-4-((2R,3R)-2-methyl-3-(3-methylbut-2-en-1-yl)oxiran-2-yl)-1-oxaspiro[2.5]octan-6-yl 6-((2-morpholinoethyl)carbamoyl)-3-azabicyclo[3.1.0]hexane-3-carboxylate], the inhibition in vivo at 0.3 mg/kg in test [1] was determined as 4.3%. Still for that read-out and setting: in the case of `CO[C@@H]1[C@H](OC(=O)N2C[C@@H]3[C@@H](CN4CCOCC4)[C@@H]3C2)CC[C@]2(CO2)[C@H]1[C@@]1(C)O[C@@H]1CC=C(C)C` [Example 40, (1R,5S,6S)-((3R,4S,5S,6R)-5-methoxy-4-((2R,3R)-2-methyl-3-(3-methylbut-2-enyl)oxiran-2-yl)-1-oxaspiro[2.5]octan-6-yl) 6-(morpholinomethyl)-3-azabicyclo[3.1.0]hexane-3-carboxylate] it was 11.1%.

Take `CO[C@@H]1[C@H](OC(=O)NC2CC3(CCN(C)CC3)C2)CC[C@]2(CO2)[C@H]1[C@@]1(C)O[C@@H]1CC=C(C)C` [Example 7, (3R,4S,5S,6R)-5-methoxy-4-((2R,3R)-2-methyl-3-(3-methylbut-2-enyl)oxiran-2-yl)-1-oxaspiro[2.5]octan-6-yl 7-methyl-7-azaspiro[3.5]nonan-2-ylcarbamate formate]: the half-maximal inhibitory concentration (IC50) on recombinant human MetAP2 was under 50 nM. Further, the inhibition in vivo at 0.3 mg/kg in test [1] is 1.9%. `CO[C@@H]1[C@H](OC(=O)N2CCC3(CCN(C)CC3)CC2)CC[C@]2(CO2)[C@H]1[C@@]1(C)O[C@@H]1CC=C(C)C` [Example 28, (3R,4S,5S,6R)-5-methoxy-4-((2R,3R)-2-methyl-3-(3-methylbut-2-enyl)oxiran-2-yl)-1-oxaspiro[2.5]octan-6-yl 9-methyl-3,9-diazaspiro[5.5]undecane-3-carboxylate]: in test [1], the inhibition in vivo at 0.3 mg/kg stood at 8%. The same measure, in the same setting: the result for `COC(=O)N1C[C@@H]2CN(C(=O)O[C@@H]3CC[C@]4(CO4)[C@@H]([C@@]4(C)O[C@@H]4CC=C(C)C)[C@@H]3OC)C[C@@H]2C1` [Example 42, (3aR,6aS)-2-((3R,4S,5S,6R)-5-methoxy-4-((2R,3R)-2-methyl-3-(3-methylbut-2-enyl)oxiran-2-yl)-1-oxaspiro[2.5]octan-6-yl) 5-methyl tetrahydropyrrolo[3,4-c]pyrrole-2,5(1H,3H)-dicarboxylate] reads 12.4%. The same measure, in the same setting: the result for `CO[C@@H]1[C@H](OC(=O)N2CCC3(CCNC(=O)C3)CC2)CC[C@]2(CO2)[C@H]1[C@@]1(C)O[C@@H]1CC=C(C)C` [Example 30, (3R,4S,5S,6R)-5-methoxy-4-((2R,3R)-2-methyl-3-(3-methylbut-2-enyl)oxiran-2-yl)-1-oxaspiro[2.5]octan-6-yl 8-oxo-3,9-diazaspiro[5.5]undecane-3-carboxylate] reads 1.1%. As to `CO[C@@H]1[C@H](OC(=O)N2CCC3(CCN(C)C(=O)C3)CC2)CC[C@]2(CO2)[C@H]1[C@@]1(C)O[C@@H]1CC=C(C)C` [Example 31, (3R,4S,5S,6R)-5-methoxy-4-((2R,3R)-2-methyl-3-(3-methylbut-2-enyl)oxiran-2-yl)-1-oxaspiro[2.5]octan-6-yl 9-methyl-8-oxo-3,9-diazaspiro[5.5]undecane-3-carboxylate], the inhibition in vivo at 0.3 mg/kg in test [1] was 3.6%.

With `CNC(=O)[C@H]1[C@@H]2CN(C(=O)O[C@@H]3CC[C@]4(CO4)[C@@H]([C@@]4(C)O[C@@H]4CC=C(C)C)[C@@H]3OC)C[C@@H]21` [Example 32, (1R,5S,6R)-(3R,4S,5S,6R)-5-methoxy-4-((2R,3R)-2-methyl-3-(3-methylbut-2-en-1-yl)oxiran-2-yl)-1-oxaspiro[2.5]octan-6-yl 6-(methylcarbamoyl)-3-azabicyclo[3.1.0]hexane-3-carboxylate], the half-inhibitory concentration (IC50) on recombinant human MetAP2 fell in the range of 50 to 500 nM. The inhibition in vivo at 0.3 mg/kg in test [1] came out at 4%. For `CO[C@@H]1[C@H](OC(=O)N2CCC3(CN(CC(F)F)C3)C2)CC[C@]2(CO2)[C@H]1[C@@]1(C)O[C@@H]1CC=C(C)C` [Example 15, (3R,4S,5S,6R)-5-methoxy-4-((2R,3R)-2-methyl-3-(3-methylbut-2-enyl)oxiran-2-yl)-1-oxaspiro[2.5]octan-6-yl 2-(2,2-difluoroethyl)-2,6-diazaspiro[3.4]octane-6-carboxylate], in test [1], the inhibition in vivo at 0.3 mg/kg came to 22.5%. As for `CO[C@@H]1[C@H](OC(=O)N2CCC3(CCN(CC(F)F)CC3)C2)CC[C@]2(CO2)[C@H]1[C@@]1(C)O[C@@H]1CC=C(C)C` [Example 16, (3R,4S,5S,6R)-5-methoxy-4-((2R,3R)-2-methyl-3-(3-methylbut-2-enyl)oxiran-2-yl)-1-oxaspiro[2.5]octan-6-yl 8-(2,2-difluoroethyl)-2,8-diazaspiro[4.5]decane-2-carboxylate], in test [1], the inhibition in vivo at 0.3 mg/kg stood at 23.4%. On the same count and under the same terms, the result for `CO[C@@H]1[C@H](OC(=O)N2CCC3(CC2)CNC(=O)C3)CC[C@]2(CO2)[C@H]1[C@@]1(C)O[C@@H]1CC=C(C)C` [Example 29, (3R,4S,5S,6R)-5-methoxy-4-((2R,3R)-2-methyl-3-(3-methylbut-2-enyl)oxiran-2-yl)-1-oxaspiro[2.5]octan-6-yl 3-oxo-2,8-diazaspiro[4.5]decane-8-carboxylate] reads -0.5%. In the case of `CO[C@@H]1[C@H](OC(=O)N2CC3CC3C2)CC[C@]2(CO2)[C@H]1[C@@]1(C)O[C@@H]1CC=C(C)C` (stereo partly drawn) [Example 21, (3R,4S,5S,6R)-5-methoxy-4-((2R,3R)-2-methyl-3-(3-methylbut-2-enyl)oxiran-2-yl)-1-oxaspiro[2.5]octan-6-yl 3-azabicyclo[3.1.0]hexane-3-carboxylate], the inhibition in vivo at 0.3 mg/kg in test [1] turned out to be 21.2%.

A word on the IC50: it is the concentration needed to halve the response being measured. Broadly, the inhibition in vivo is the change of the read-out against control, counted positive when it falls.
